How the values were obtained:
Details in all cases: exposure time: 90 min
1392 [1] = donor line of iPSC-derived cardiomyocytes; assay: POD (EC05) for increase in beat frequency (positive chronotrope) vs vehicle; higher = less potent (higher point of departure)
Method: (§1)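 Human iPSC-derived cardiomyocytes from 16 donors were exposed for 90 min at 37 °C to each PFAS at 0.1, 1, 10 and 100 µM in 0.5% DMSO, 384-well plates. Kinetic Ca2+ flux (FLIPR) and Hoechst nuclei counts were normalised to vehicle wells and fitted with a hierarchical Bayesian Hill model to give donor-specific PODs: EC05 for beat-rate increase or decrease and for decay-to-rise ratio increase (QT proxy), EC95 for peak-frequency loss (asystole), EC10 for total cell number loss. 0.03 µM is the lower bound.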

20032 = donor line of iPSC-derived cardiomyocytes; assay: as above
Method: as §1

1434 = donor line of iPSC-derived cardiomyocytes; assay: as above
Method: as §1

1535 = donor line of iPSC-derived cardiomyocytes; assay: as above
Method: as §1

20084 = donor line of iPSC-derived cardiomyocytes; assay: as above
Method: as §1

1565 = donor line of iPSC-derived cardiomyocytes; assay: as above
Method: as §1

1118 = donor line of iPSC-derived cardiomyocytes; assay: as above
Method: as §1

1368 = donor line of iPSC-derived cardiomyocytes; assay: as above
Method: as §1

30171 [2] = donor line of iPSC-derived cardiomyocytes; assay: as above
Method: as §1

1531 = donor line of iPSC-derived cardiomyocytes; assay: as above
Method: as §1

1518 = donor line of iPSC-derived cardiomyocytes; assay: as above
Method: as §1

11235 = donor line of iPSC-derived cardiomyocytes; assay: as above
Method: as §1

1309 [3] = donor line of iPSC-derived cardiomyocytes; assay: as above
Method: as §1

1516 [4] = donor line of iPSC-derived cardiomyocytes; assay: as above
Method: as §1

1083 = donor line of iPSC-derived cardiomyocytes; assay: as above
Method: as §1

1392 [5] = assay: POD (EC10) for decrease in total cell number (cytotoxicity) vs vehicle; higher = less potent (higher point of departure)
Method: as §1

30171 [6] = assay: as above
Method: as §1

30145 = donor line of iPSC-derived cardiomyocytes; assay: as above
Method: as §1

1309 [7] = assay: as above
Method: as §1

1516 [8] = assay: as above
Method: as §1

Measured: POD vs vehicle

O=S(=O)(O)C(F)(F)C(F)(F)C(F)(F)C(F)(F)C(F)(F)C(F)(F)C(F)(F)C(F)(F)F [Perfluorooctanesulfonic_acid]
88.7 µM: 1309 [7]
> 100 µM: all other assays above

OCCC(F)(F)C(F)(F)C(F)(F)C(F)(F)F [4:2 Fluorotelomer alcohol]
49.9 µM: 30145
not listed: 30171 [6]
> 100 µM: all other assays above

O=C(O)C(F)(F)C(F)(F)C(F)(F)C(F)(F)C(F)(F)C(F)(F)C(F)(F)C(F)(F)C(F)(F)C(F)(F)F [Perfluoroundecanoic_acid]
> 100 µM: all assays above

NC(O)(C(F)(F)F)C(F)(F)F [2-Aminohexafluoropropan-2-ol]
> 100 µM: all assays above

CN(CCO)S(=O)(=O)C(F)(F)C(F)(F)C(F)(F)C(F)(F)C(F)(F)C(F)(F)C(F)(F)C(F)(F)F [N-Methyl-N-(2-hydroxyethyl)perfluorooctanesulfonamide]
0.199 µM: 20032
not listed: 1434 | 11235 | 1516 [4]
> 100 µM: all other assays above

COC(=O)C(F)(F)C(F)(F)OC(F)(C(F)(F)F)C(F)(F)OC(F)=C(F)F (stereo unspecified) [Methyl_perfluoro(3-(1-ethenyloxypropan-2-yloxy)propanoate)]
> 100 µM: all assays above

NC(=O)C(F)(F)C(F)(F)C(F)(F)C(F)F
0.93 µM: 30171 [6]
> 100 µM: all other assays above

O=C(O)C(F)(F)C(F)(F)C(F)(F)OC(F)(C(F)(F)F)C(F)(F)F [Perfluoro-4-isopropoxybutanoic_acid]
> 100 µM: all assays above

OCC(O)CC(F)(F)C(F)(F)C(F)(F)C(F)(F)C(F)(F)C(F)(F)C(F)(F)C(F)(F)F (stereo unspecified) [1-(Perfluorofluorooctyl)propane-2,3-diol]
0.136 µM: 30171 [2]
0.231 µM: 11235
0.516 µM: 1516 [4]
3.1 µM: 1118
0.394 µM: 1309 [3]
0.19 µM: 1434
> 100 µM: all other assays above

Reference: the supplement of paper PMC11368000
